This is an account of results in US11065230B2, “Methods and pharmaceutical compositions for the treatment of systemic mastocytosis” (INSERM (INSTITUT NATIONAL DE LA SANTE ET DE LA RECHERCHE …, priority 2016, dated 2021).

In data set [1] the test system is ROSA WT MC line (SCF-dependent, without KIT mutation). Briefly: Cell death and proliferation in ROSA WT mast cell line. The class given is cell-based, human. Particulars: KPT at 100 nM, 1000 nM vs DMSO; for cell proliferation (counting after trypan blue staining): 24, 48 and 72 hours; for cell death (percentage of annexin positive cells): 72 hours, SCF 100 ng/mL. The procedure:
(§1) FIG. 1. […] Upper panel: Cell death data are presented in histograms as mean percentage of annexin positive cells ±SD after 72 hours of treatment with KPT at 100 nM, 1000 nM or with DMSO (control) in ROSA WT and ROSA D816V MC lines, n=6 independent experiments. P values are determined by ANOVA Tukeys multiple comparison test. Lower panel: Proliferation curves analysis ±SD of ROSA WT and ROSA D816V MC lines assessed by counting after blue trypan staining at 24, 48 and 72 hours of treatment with KPT at 100 nM, 1000 nM, or with DMSO (control), n=3 independent experiments. P values are determined by one-way ANOVA test, *P<0.05, ***P<0,001, ****P<0,0001, ns=not significant.
(§2) Here we show the effect of KPT-251 treatment on two different human mast cell (MC) lines : ROSA and HMC1 cell lines and on bone marrow cells depleted with erythrocytes, from a patient with aggressive mastocytosis with D816V mutation. ROSA cell lines include a SCF-dependent MC line without KIT mutation (ROSA WT) and a factor-independent MC line with KIT mutation D816V (ROSA D816V). HMC1 factor-independent MC lines include HMC1.1 with G560V KIT mutation and HMC1.2 with G560V and D816V KIT mutation.
(§3) Human MC lines ROSA WT and ROSA D816V were treated for 72 hours with KPT-251 at 100 nM, 1000 nM, or with DMSO (control) and HMC1.1 and HMC1.2 were treated for 72 hours with KPT-251 at 100 nM, 500 nM, 1000 nM, or with DMSO (control). WT ROSA cell lines were cultured in the presence of human SCF at 100 ng/mL. Cells were plated at 0,5 million/mL at day 0. Cell death percentage was assessed by counting after trypan blue staining or Annexin V labelling analysed by flow cytometry. Proliferation was assessed by counting after trypan blue staining. Bone marrow cells from patient were depleted with erythrocytes and then treated for 7 days with KPT at 100 nm, 500 nM, 1000 nm, or with DMSO (control) in culture media supplemented with SCF at 80 ng/mL and IL6 at 50 ng/mL.

The test system of data set [2] is ROSA D816V MC line (KIT mutation D816V). Put plainly: Cell death and proliferation in ROSA D816V mast cell line. Particulars: KPT at 100 nM, 1000 nM vs DMSO; for cell proliferation (counting after trypan blue staining): 24, 48 and 72 hours; for cell death (percentage of annexin positive cells): 72 hours. The class given is cell-based, human. The procedure:
as §1, §2, §3

In data set [3] the test system is HMC1.1 MC line (G560V KIT mutation). Briefly: Cell death and proliferation in HMC1.1 mast cell line. The class given is cell-based, human. The following applies: KPT at 100 nM, 500 nM, 1000 nM vs DMSO; for cell proliferation (counting after trypan blue staining): 24, 48 and 72 hours; for cell death (percentage of dead cells, trypan blue staining): 72 hours. The procedure:
(§4) FIG. 2. […] Upper panel: Cell death data are presented in histograms as mean percentage of dead cells ±SD assessed by counting after blue trypan staining after 72 hours of treatment with KPT at 100 nM, 500 nM, 1000 nM or DMSO (control) in HMC1.1 and HMC1.2 MC lines, n=3 independent experiments. P values are determined by ANOVA Tukeys multiple comparison test. Lower panel: Proliferation curves analysis ±SD of HMC1.1 and HMC1.2 MC lines assessed by blue trypan staining at 24, 48 and 72 hours of treatment with KPT100 nM, 500 nM, KPT1000 nM, or DMSO (control), n=3 independent experiments. P values are determined by one-way ANOVA test, *P<0.05, **P<0,01, ns=not significant. Here we show the effect of KPT-251 treatment on two different human mast cell (MC) lines : ROSA and HMC1 cell lines and on bone marrow cells depleted with erythrocytes, from a patient with aggressive mastocytosis with D816V mutation. ROSA cell lines include a SCF-dependent MC line without KIT mutation (ROSA WT) and a factor-independent MC line with KIT mutation D816V (ROSA D816V). HMC1 factor-independent MC lines include HMC1.1 with […] KIT mutation and HMC1.2 with […] and D816V KIT mutation. […] Human MC lines ROSA WT and ROSA D816V were treated for 72 hours with KPT-251 at 100 nM, 1000 nM, or with DMSO (control) and HMC1.1 and HMC1.2 were treated for 72 hours with KPT-251 at 100 nM, 500 nM, 1000 nM, or with DMSO (control). WT ROSA cell lines were cultured in the presence of human SCF at 100 ng/mL. Cells were plated at 0,5 million/mL at day 0. Cell death percentage was assessed by counting after trypan blue staining or Annexin V labelling analysed by flow cytometry. Proliferation was assessed by counting after trypan blue staining. Bone marrow cells from patient were depleted with erythrocytes and then treated for 7 days with KPT at 100 nm, 500 nM, 1000 nm, or with DMSO (control) in culture media supplemented with SCF at 80 ng/mL and IL6 at 50 ng/mL.

In data set [4] the test system is HMC1.2 MC line (G560V and D816V KIT mutation). Put plainly: Cell death and proliferation in HMC1.2 mast cell line. Format: cell-based, human. The following applies: KPT at 100 nM, 500 nM, 1000 nM vs DMSO; for cell proliferation (counting after trypan blue staining): 24, 48 and 72 hours; for cell death (percentage of dead cells, trypan blue staining): 72 hours. The method, then:
as §4

Data set [5] concerns bone marrow cells from a patient with aggressive mastocytosis with D816V mutation. Put plainly: Cell death, proliferation and histamine secretion in patient bone marrow cells. The class given is cell-based, human. Particulars: 7 days, KPT at 100 nM, 500 nM, 1000 nM vs DMSO. The method, then: FIG. 3. […] Upper panel: Cell death data presented as percentage of dead cells, and proliferation data, are presented in histograms. Cell death and proliferation were assessed by counting after blue trypan staining, after 7 days of treatment with KPT at 100 nM, 500 nM, 1000 nM or DMSO (control), n=1. Lower panel Histamin concentration in ng/mL was quantified in cell culture media of bone marrow cells from the patient, after 7 days of treatment with KPT at 100 nM, 500 nM, 1000 nM or DMSO (control), n=1
as §2, §3

Data set [6] deals with non-cancerous hematopoietic cells. The following applies: both in vitro and in vivo; cited from earlier work.
In data set [7] the test system is normal hematopoietic stem and progenitor cells. The following applies: cited from earlier work.
The test system of data set [8] is patients with relapsed or refractory AML. Particulars: alone or in combination with conventional therapies; cited from earlier work.
The test system of data set [9] is AML blasts and leukemia-initiating cells. Particulars: cited from earlier work.
For data set [10] the following is noted: compared to first generation KPT; cited from earlier work.

Consider `FC(F)(F)c1cc(-c2ncn(/C=C\c3nnco3)n2)cc(C(F)(F)F)c1` [KPT-251, (Z)-2-(2-(3-(3,5-bis(trifluoromethyl)phenyl)-1H-1,2,4-triazol-1-yl)vinyl)-1,3,4-oxadiazol], for which the “cell proliferation (counting after trypan blue staining)” value in data set [1] was “decreases proliferation”; in data set [1] (listed as KPT 251), “decrease in cell proliferation”; in [2], “decreases proliferation”; in data set [2] (listed as KPT 251), “decrease in cell proliferation”; in data set [3], “decreases proliferation”; in data set [3] (listed as KPT 251), “significatively decreases proliferation in a dose dependent manner”. In addition, the “cell proliferation (counting after trypan blue staining)” value in data set [4] is reported as “decreases proliferation”; in data set [4] (listed as KPT 251), “significatively decreases proliferation in a dose dependent manner, more importantly in HMC1.2 cell line”; in data set [5] (n=1), “decreases proliferation”; in [5] (n=1, listed as KPT) it was “decrease in proliferation”. Also, the “cell death (percentage of annexin positive cells)” value in data set [1] is “induces cell death”; in data set [1] (listed as KPT 251), “significant dose dependent increase in cell death”; in data set [2] it was “induces cell death”; in data set [2] (listed as KPT 251), “significant dose dependent increase in cell death”. For the same molecule, the “cell death (percentage of dead cells, trypan blue staining)” value was “no effect on cell death” in data set [3]; “weak effect on cell death” in data set [3] (listed as KPT 251); “no effect on cell death” in data set [4]; “weak effect on cell death” in data set [4] (listed as KPT 251); “induces cell death” in data set [5] (n=1); “increase in cell death” in [5] (n=1, listed as KPT). Moreover, the “histamine concentration in cell culture media” value was “decreases the secretion of histamin in culture media” in data set [5] (n=1) and “decrease in media concentration of histamine” in data set [5] (n=1, listed as KPT). In addition, in data set [6], the “toxicity in non-cancerous hematopoietic cells” value is on record as “minimal toxicity”. The “effect on normal hematopoietic stem and progenitor cells” value in [7] is recorded as “no significant effect”.
With `O=C(/C=C\n1cnc(-c2cc(C(F)(F)F)cc(C(F)(F)F)c2)n1)NNc1cnccn1` [KPT-330], in [8], the induction of remission entry is recorded as “active in inducing remission”.
On to `NC(=O)/C(=C/n1cnc(-c2cc(C(F)(F)F)cc(C(F)(F)F)c2)n1)c1cncnc1` [KPT-8602], for which the “activity against AML blasts and leukemia-initiating cells” value in [9] is on record as “effective activity”. In data set [10], the brain penetration result is recorded as “reduced brain penetration” and the tolerance entry is “better tolerance”.
